# Test results reported in patent EP0186977A2, “Renin-inhibitory dipeptides, their preparation and use” (SANKYO COMPANY LIMITED, priority 1984, dated 1986).
# Target: T1, human renin (Homo sapiens, UniProt P00797)
# T1 sequence (P00797 67-406): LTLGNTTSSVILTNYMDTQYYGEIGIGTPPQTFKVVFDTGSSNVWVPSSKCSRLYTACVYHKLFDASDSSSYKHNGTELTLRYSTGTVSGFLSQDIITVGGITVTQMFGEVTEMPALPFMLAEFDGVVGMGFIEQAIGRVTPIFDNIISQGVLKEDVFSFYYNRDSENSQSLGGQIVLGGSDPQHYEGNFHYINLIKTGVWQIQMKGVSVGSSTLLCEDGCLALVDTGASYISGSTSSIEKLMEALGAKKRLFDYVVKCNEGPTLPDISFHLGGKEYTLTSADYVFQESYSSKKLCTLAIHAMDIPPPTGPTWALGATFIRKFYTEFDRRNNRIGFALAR
# Assay: Inhibition of renin activity (human renin with sheep angiotensinogen, assay of remaining angiotensin I)
# Format: biochemical
# Settings: 1 x 10 ^6M of the test compound, phosphate buffer pH 7.3, 10 minutes at 37°C, mean of 3 or 4 experiments
# Protocol: The ability of various compounds of the invention to inhibit the activity of renin was determined according to the following method, which follows essentially the procedure of Kokubu et al. [Hypertension, 5, 191-197 (1983)].
# Specifically, each test compound was dissolved in 60% v/v aqueous ethanol. Human renin activity in the presence and absence of each compound was measured using sheep angiotensinogen. The total volume of 1 ml of assay mixture contained 0.1 mole/litre phosphate buffer (pH 7.3), human renin (equivalent to 0.5 ng angiotensin I per ml per minute), sheep angiotensinogen (equivalent to 200 ng angiotensin 1), 1 x 10 ^6M of the test compound, 6% v/v ethanol and angiotensinase inhibitors (10 mmole/litre sodium ethylenediaminetetraacetate and 3.4 mmole/litre 8-hydroxyquinoline). The mixture was allowed to react for 10 minutes at 37°C, and then the reaction was stopped by placing the reaction tube in a boiling water bath for 5 minutes. The mixture was then centrifuged and the supernatant (0.05-0.1 ml) was used to assay remaining angiotensin I.
# An identical experiment was carried out, as a control, except that the test compound was omitted. From the values obtained were calculated the % inhibition of renin activity achieved by each test compound. The results are shown in the following Table, in which the compounds of the invention are identified by the numbers assigned to them in the foregoing list. The values given are the mean of 3 or 4 experiments.
# The isomers of these test compounds employed in these experiments are those isomers prepared as described in the subsequent Examples.
row,Structure (SMILES),inhibition at 1 µM [%]
1,"CC[C@H](C)[C@@H](CO)NC(=O)C[C@H](O)[C@H](CC(C)C)NC(=O)C(Cc1cscn1)NC(=O)C(Cc1cccc2ccccc12)Cc1cccc2ccccc12 (mixture of isomers) [Compound No. 223, N-[4(S)-{N-[Bis(1-naphthylmethyl)acetyl]-3-(4-thiazolyl)-DL-alanylamino}-3(S)-hydroxy-6-methyl-heptanoyl]-L-isoleucinol]",95
2,"CC[C@H](C)[C@@H](CO)NC(=O)C[C@H](O)[C@H](CC(C)C)NC(=O)[C@H](Cc1c[nH]cn1)NC(=O)C(Cc1cccc2ccccc12)Cc1cccc2ccccc12 [Compound No. 72, N-[4(S)-{N-[Bis(1-naphthylmethyl)acetyl]-L-histidylamino}-3(S)-hydroxy-6-methylheptanoyl]-L-isoleucinol]",99
3,"CC[C@H](C)CNC(=O)C[C@H](O)[C@H](CC(C)C)NC(=O)[C@H](Cc1c[nH]cn1)NC(=O)C(Cc1cccc2ccccc12)Cc1cccc2ccccc12 [Compound No. 74, 4(S)-{N-[Bis(1-naphthylmethyl)acetyl]-L-histidyl-amino}-3(S)-hydroxy-6-methyl-N-[2(S)-(-)-methylbutyl]-heptanamide]",98.2
4,"CCCC[C@H](NC(=O)C(Cc1cccc2ccccc12)Cc1cccc2ccccc12)C(=O)N[C@@H](CC(C)C)[C@@H](O)CC(=O)N[C@H](CO)[C@@H](C)CC [Compound No. 88, N-[4(S)-{N-[Bis(1-naphthylmethyl)acetyl]-L-norleucylamino}-3(S)-hydroxy-6-methylheptanoyl]-L-isoleucinol]",99
5,"CC[C@H](C)[C@@H](CO)NC(=O)C[C@H](O)[C@H](CC(C)C)NC(=O)[C@H](CCSC)NC(=O)C(Cc1cccc2ccccc12)Cc1cccc2ccccc12 [Compound No. 196, N-[4(S)-{N-[Bis(1-naphthylmethyl)acetyl]-L-methionyl-amino}-3(S)-hydroxy-6-methylheptanoyl]-L-isoleucinol]",93.5
6,"CCCCCCCC(NC(=O)C(Cc1cccc2ccccc12)Cc1cccc2ccccc12)C(=O)N[C@@H](CC(C)C)[C@@H](O)CC(=O)N[C@H](CO)[C@@H](C)CC (stereo partly drawn) [Compound No. 286, N-[4(S)-{2(RS)-(Bis(1-naphthylmethyl)acetyl]amino-nonanovl}amino-3(S)-hydroxv-6-methylheptanoyl]-L-isoleucinol]",99

# Next, values leading:
row,inhibition at 1 µM [%],Structure (SMILES)
1,99,"C=CCC(NC(=O)C(Cc1cccc2ccccc12)Cc1cccc2ccccc12)C(=O)N[C@@H](CC(C)C)[C@@H](O)CC(=O)N[C@H](CO)[C@@H](C)CC (mixture of isomers) [compound 291, N-[4(S)-{N-[Bis(1-naphthylmethyl)acetyl]-DL-allylglycylamino}-3(S)-hydroxy-6-methylheptanoyl]-L-isoleucinol]"
2,93.5,CC(C)C[C@H](NC(=O)C(CCCCc1ccccc1)Cc1cccc2ccccc12)C(=O)N[C@@H](CC(C)C)[C@@H](O)CC(=O)NCCN1CCOCC1 (stereo partly drawn) [compound 15]
3,99,"CCOCCNC(=O)C[C@H](O)[C@H](CC(C)C)NC(=O)[C@H](CC(C)C)NC(=O)C(Cc1cccc2ccccc12)Cc1cccc2ccccc12 [compound 45, 4(S)-{N-[Bis(1-naphthylmethyl)acetyl]-L-leucylamino}-3(S)-hydroxv-6-methvl-N-(2-ethoxyethvl)heptanamide]"
4,93,"CC[C@H](C)[C@@H](CO)NC(=O)C[C@H](O)[C@H](CC(C)C)NC(=O)[C@H](CCC(N)=O)NC(=O)C(Cc1cccc2ccccc12)Cc1cccc2ccccc12 [compound 208, N-[4(S)-{N-[Bis(1-naphthylmethyl)acetyl]-L-glutaminylamino}-3(S)-hydroxy-6-methylheptanoyl]-L-isoleucinol]"
5,92,CC[C@H](C)[C@@H](CO)NC(=O)C[C@H](O)[C@H](CC(C)C)NC(=O)[C@H](CCC(=O)O)NC(=O)C(Cc1cccc2ccccc12)Cc1cccc2ccccc12 [compound 212]
6,99,CCCCCC(NC(=O)C(Cc1cccc2ccccc12)Cc1cccc2ccccc12)C(=O)N[C@@H](CC(C)C)[C@@H](O)CC(=O)NCC(C)CC (stereo partly drawn) [compound 274]
